Measured values published in US8921380B2, “Pyrazolo[1,5-a] pyrimidine compounds as CB1 receptor antagonist” (Mitsubishi Tanabe Pharma Corporation, priority 2006, dated 2014).

Biological target: T1, Human CB1 receptor (Homo sapiens, UniProt P21554)
T1 construct: host or cells: CHO (hCB1/CHO), membrane fraction
Experiment: Human CB1 receptor binding assay ([3H]-CP55940, hCB1/CHO membrane fraction)
Conditions: Experiment 1; inhibition of [3H]-CP55940 binding to hCB1/CHO membranes
Protocol: [Human CB1 Receptor Binding Assay]
(1) Preparation of Human CB1 Receptor (Membrane Fraction):
Human CB1-expressing cell line: hCB1/CHO (#ES-110-C, Euroscreen)
Buffer A: 50 mM tris-HCl (pH 7.5) containing ethylenediaminetetraacetic acid (2.5 mM), MgCl2 (5 mM) and sucrose (200 mM)
Method) The receptor-expressing cells cultivated in the above medium were washed with phosphate buffer (×2 times) and thereto was added Buffer A (2 mL) under ice-cooling or 4° C. (the following procedures were also carried out at the same temperature). The cells were collected by using a cell-scraper, treated by a microtip-type ultrasonicator for 20 seconds (pulse-on: 2 sec, pulse-off: 1 sec) and centrifuged (500×g, 15 min). The supernatant was separated and centrifuged (43000×g, 60 min). The resultant pellet was suspended in Buffer A and homogenized with a potter-type homogenizer. To the homogenate was added an equal volume of 80% glycerol and stored at −80° C.
(2) Procedure of CB1 Receptor Binding Assay:
Buffer B: 50 mM tris-HCl (pH 7.5) containing ethylenediaminetetraacetic acid (2.5 mM), MgCl2 (5 mM) and bovine serum albumine (2 mg/mL, fatty acid-free, SIGMA-A7030)
Buffer C: 50 mM tris-HCl (pH 7.5) containing ethylenediaminetetraacetic acid (2.5 mM), MgCl2 (5 mM) and bovine serum albumine (2 mg/mL, SIGMA-A7906)
Coating solution: 0.3% ethyleneimine polymer
Radioligand: [^3H]-CP55940 (30 nM, 7992 dpm/μL, PerkinElmer, #NET-1051) prepared by diluting 8.3 μM solution of the radioligand with Buffer B
Method) Each well of the assay plate (96-well, Corning Costar Code#3371) was filled with Buffer B (140 μL), a solution of each test compound in dimethylsulfoxide (20 μL, […]), radioligand (20 μL) and membrane preparation (20 μL, 0.5 to 8.0 μg/20 μL) and the mixture was incubated at room temperature for 90 minutes to proceed the binding reaction. The reaction mixture was filtered through Unifilter GF/B (Packard#6005177) presoaked with the above coating solution to collect the membrane fraction. The plate was washed with Buffer C (200 μL×10 times) and dried at 50° C. for 1 hour and Microscinti 40 (40 μL/well) was added to each well. The bound radiolabel was quantitated by a scintilation counter (Top Count NXT, Packard). IC50 value of each test compound against the radioligand-binding to CB1 receptors was calculated on the basis of the quantitated radiolabel activity by using Microsoft Excel 2000 (Microsoft).
(§1) a) Human CB1 receptor-binding assay: The binding assay was conducted in the same manner as described in Experiment 1.

T1 sequence (P21554 whole entry): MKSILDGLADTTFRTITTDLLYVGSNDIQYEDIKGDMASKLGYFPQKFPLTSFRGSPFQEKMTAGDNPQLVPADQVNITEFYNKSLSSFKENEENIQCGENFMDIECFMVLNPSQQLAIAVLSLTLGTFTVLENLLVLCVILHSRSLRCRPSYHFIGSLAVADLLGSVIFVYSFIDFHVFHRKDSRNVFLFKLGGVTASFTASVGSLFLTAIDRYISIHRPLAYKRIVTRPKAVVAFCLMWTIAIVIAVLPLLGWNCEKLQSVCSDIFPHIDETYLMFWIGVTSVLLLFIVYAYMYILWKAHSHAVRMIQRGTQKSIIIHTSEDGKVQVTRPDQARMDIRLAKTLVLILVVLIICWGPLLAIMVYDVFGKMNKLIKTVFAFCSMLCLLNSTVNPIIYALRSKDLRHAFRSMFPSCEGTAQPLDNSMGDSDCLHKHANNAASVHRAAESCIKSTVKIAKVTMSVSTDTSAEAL

Row | IC50 [nM] | SMILES
1 | 10 to 100 | NC(=O)C1(NC(=O)c2c(S(N)(=O)=O)nn3c(-c4ccc(Cl)cc4)c(-c4ccccc4Cl)cnc23)CCCCC1 [Example B30, 3-[N-(1-carbamoylcyclohexyl)carbamoyl]-6-(2-chlorophenyl)-7-(4-chlorophenyl)-2-sulfamoylpyrazolo[1,5-a]pyrimidine]
2 | 10 to 100 | CNC(=O)C1(NC(=O)c2cnn3c(-c4ccc(Cl)cc4)c(-c4ccccc4Cl)cnc23)CCCCC1 [Example A5, 6-(2-chlorophenyl)-7-(4-chlorophenyl)-3-[N-[1-(N-methylcarbamoyl)cyclohexyl]-carbamoyl]pyrazolo[1,5-a]pyrimidine]
3 | < 10 | CN(NC(=O)c1c(S(N)(=O)=O)nn2c(-c3ccc(Cl)cc3)c(-c3ccccc3Cl)cnc12)c1ccccn1 [Example B15]
4 | 10 to 100 | CC1(NC(=O)c2cnn3c(-c4ccc(Cl)cc4)c(-c4ccccc4Cl)cnc23)CCCCC1 [Example A10]
5 | 10 to 100 | NC(=O)CNS(=O)(=O)c1nn2c(-c3ccc(Cl)cc3)c(-c3ccccc3Cl)cnc2c1C(=O)NC1CCCC1 [Example B26]
6 | 10 to 100 | Cc1nn2c(-c3ccc(C(F)(F)F)cc3)c(-c3ccccc3Cl)cnc2c1C(=O)NC1(C#N)CCCCC1 [Example A13]
7 | < 10 | NS(=O)(=O)c1nn2c(-c3ccc(Cl)cc3)c(-c3ccccc3Cl)cnc2c1C(=O)NN1CCCC1 [Example B14]
8 | 10 to 100 | CNS(=O)(=O)c1nn2c(-c3ccc(Cl)cc3)c(-c3ccccc3Cl)cnc2c1C(=O)N[C@@H]1CCS(=O)(=O)C1 [Example B6]
9 | < 10 | N#Cc1ccccc1-c1cnc2c(C(=O)NC3CCCC3)c(S(N)(=O)=O)nn2c1-c1ccc(Cl)cc1 [Example B23]
10 | 10 to 100 | CN(NC(=O)c1c(S(=O)(=O)N(C)C)nn2c(-c3ccc(Cl)cc3)c(-c3ccccc3Cl)cnc12)c1ccccn1 [Example B12]
11 | 10 to 100 | CC(NC(=O)c1cnn2c(-c3ccc(Cl)cc3F)c(-c3ccccc3Cl)cnc12)c1ccccn1 (centres unmarked) [Example A15]

Same assay, conditions: Experiment 2; same method as Experiment 1

Row | IC50 [nM] | SMILES
12 | 10 to 100 | N#Cc1ccccc1-c1cnc2c(C(=O)NC3(C(N)=O)CCS(=O)(=O)CC3)cnn2c1-c1ccc(C(F)(F)F)cc1 [Example A146]
13 | 10 to 100 | Cc1nn2c(-c3ccc(Cl)cc3)c(-c3ccccc3Cl)cnc2c1C(=O)NC1(C(N)=O)CCS(=O)(=O)CC1 [Example A175]
14 | < 10 | CC1(NC(=O)c2c(CO)nn3c(-c4ccc(C(F)(F)F)cc4)c(-c4ccccc4Cl)cnc23)CCS(=O)(=O)CC1 [Example B32, 6-(2-chlorophenyl)-7-(4-trifluoromethylphenyl)-2-hydroxymethyl-3-[N-(4-methyl-1,1-dioxotetrahydrothiopyran-4-yl)-carbamoyl]pyrazolo[1,5-a]pyrimidine]
15 | 10 to 100 | NC(=O)C1(NC(=O)c2cnn3c(-c4ccc(Cl)cc4)c(-c4ccccc4Cl)cnc23)CCS(=O)(=O)CC1 [Example A3, 3-[N-(4-carbamoyl-1,1-dioxo-tetrahydrothiopyran-4-yl)carbamoyl]-6-(2-chlorophenyl)-7-(4-chlorophenyl)pyrazolo[1,5-a]pyrimidine]
16 | < 10 | CNC(=O)c1nn2c(-c3ccc(C(F)(F)F)cc3)c(-c3ccccc3Cl)cnc2c1C(=O)NC1(C)CCS(=O)(=O)CC1 [Example B36]
17 | 10 to 100 | CN(C)NC(=O)c1c(S(N)(=O)=O)nn2c(-c3ccc(C(F)F)cc3)c(-c3ccccc3Cl)cnc12 [Example B84]
18 | < 10 | CC1(NC(=O)c2c(S(N)(=O)=O)nn3c(-c4ccc(Cl)cc4)c(-c4ccccc4Cl)cnc23)CC1 [Example B74]
19 | < 10 | CC1(NC(=O)c2c(OCCO)nn3c(-c4ccc(Cl)cc4)c(-c4ccccc4Cl)cnc23)CCS(=O)(=O)C1 (centres unmarked) [Example A140]

Biological target: T2, Human CB2 receptor (Homo sapiens, UniProt P34972)
T2 construct: expressed in transfected cells; host or cells: CHO (hCB2/CHO), membrane fraction
T2 sequence (P34972 whole entry): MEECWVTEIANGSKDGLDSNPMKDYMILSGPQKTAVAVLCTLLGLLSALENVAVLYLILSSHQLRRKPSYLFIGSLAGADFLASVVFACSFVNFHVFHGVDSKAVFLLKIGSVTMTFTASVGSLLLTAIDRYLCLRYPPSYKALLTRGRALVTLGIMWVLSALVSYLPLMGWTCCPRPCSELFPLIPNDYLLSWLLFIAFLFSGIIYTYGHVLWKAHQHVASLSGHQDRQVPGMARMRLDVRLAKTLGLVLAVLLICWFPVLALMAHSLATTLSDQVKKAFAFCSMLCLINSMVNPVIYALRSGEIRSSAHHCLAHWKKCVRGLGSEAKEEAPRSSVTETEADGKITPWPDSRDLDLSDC
Experiment: Human CB2 receptor-binding assay (hCB2/CHO) for selectivity to CB1 receptors
Conditions: ratio of IC50 value for CB2/IC50 value for CB1
Protocol: (1) Materials and Methods
as §1
b) Human CB2 receptor-binding assay: The binding assay was conducted in the same manner as described in Experiment 1, except that human CB2-expressing CHO cell line (hCB2/CHO) was used instead of hCB1 cell line. IC50 value of each test compound against the radioligand-binding to CB2 receptors was calculated in the manner as described in Experiment 1. Besides, selectivity to CB1 receptors was evaluated in terms of the ratio of IC50 value for CB2/IC50 value for CB1.

Row | Selectivity | SMILES
20 | >500 | NC(=O)C1(NC(=O)c2cnn3c(-c4ccc(Cl)cc4)c(-c4ccccc4Cl)cnc23)CCS(=O)(=O)CC1 [Example A3, 3-[N-(4-carbamoyl-1,1-dioxo-tetrahydrothiopyran-4-yl)carbamoyl]-6-(2-chlorophenyl)-7-(4-chlorophenyl)pyrazolo[1,5-a]pyrimidine]
